Assay results as given in ChEMBL document CHEMBL3301458, “MMV Malaria Box hERG screening”.
Active and inactive are the calls of the source. How the calls were made is not given here.

Legend:
hERG (Kv11.1, KCNH2) [1] = molecular target: T1, hERG (Kv11.1, KCNH2) (Homo sapiens, UniProt Q12809); assay: in vitro
Description: MMV: Malaria Box compounds were tested for inhibition of the human ether a go-go related gene (hERG), Kv11.1 channel, using IonWorks 384-well patch clamp electrophysiology at 1.1uM (3 independent assay plates up to 12 cells per concentration).

hERG (Kv11.1, KCNH2) [2] = molecular target: T1, hERG (Kv11.1, KCNH2); assay: in vitro; remark: listed apart in the source
Description: MMV: Malaria Box compounds were tested for inhibition of the human ether a go-go related gene (hERG), Kv11.1 channel, using IonWorks 384-well patch clamp electrophysiology at 11.1uM (3 independent assay plates up to 12 cells per concentration).

T1 sequence (Q12809 whole entry): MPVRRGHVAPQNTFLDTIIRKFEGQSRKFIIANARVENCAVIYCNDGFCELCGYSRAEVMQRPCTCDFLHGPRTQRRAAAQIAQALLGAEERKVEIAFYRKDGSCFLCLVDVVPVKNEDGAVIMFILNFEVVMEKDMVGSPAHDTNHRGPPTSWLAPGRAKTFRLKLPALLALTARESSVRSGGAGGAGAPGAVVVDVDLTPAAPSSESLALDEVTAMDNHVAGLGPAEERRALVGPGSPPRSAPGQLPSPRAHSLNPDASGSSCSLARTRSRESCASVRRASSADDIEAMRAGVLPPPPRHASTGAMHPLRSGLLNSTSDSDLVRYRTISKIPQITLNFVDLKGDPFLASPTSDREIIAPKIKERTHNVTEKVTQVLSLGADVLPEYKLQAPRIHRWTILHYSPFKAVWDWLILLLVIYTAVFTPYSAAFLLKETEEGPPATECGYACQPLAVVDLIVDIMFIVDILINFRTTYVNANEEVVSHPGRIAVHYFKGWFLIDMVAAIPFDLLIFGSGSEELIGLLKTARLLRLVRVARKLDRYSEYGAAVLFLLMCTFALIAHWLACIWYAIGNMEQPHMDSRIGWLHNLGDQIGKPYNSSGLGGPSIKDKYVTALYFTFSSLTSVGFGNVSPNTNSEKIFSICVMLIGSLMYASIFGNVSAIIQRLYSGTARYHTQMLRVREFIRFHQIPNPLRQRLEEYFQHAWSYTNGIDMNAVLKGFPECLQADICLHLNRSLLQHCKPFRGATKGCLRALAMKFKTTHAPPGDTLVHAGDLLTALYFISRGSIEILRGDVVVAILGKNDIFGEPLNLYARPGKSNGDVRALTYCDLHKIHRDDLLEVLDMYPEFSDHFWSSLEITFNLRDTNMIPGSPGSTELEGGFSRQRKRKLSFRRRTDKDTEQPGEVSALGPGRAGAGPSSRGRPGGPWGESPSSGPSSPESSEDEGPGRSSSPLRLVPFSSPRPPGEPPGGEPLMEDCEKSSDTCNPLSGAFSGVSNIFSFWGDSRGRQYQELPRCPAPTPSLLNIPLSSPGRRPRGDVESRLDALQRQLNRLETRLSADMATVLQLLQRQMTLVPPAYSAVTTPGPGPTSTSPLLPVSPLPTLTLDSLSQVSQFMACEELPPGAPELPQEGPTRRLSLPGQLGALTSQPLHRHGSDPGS

| Structure (SMILES) | inhibition at 1.1 µM (hERG (Kv11.1, KCNH2) [1]) | inhibition at 11.1 µM (hERG (Kv11.1, KCNH2) [2]) |
| --- | --- | --- |
| O=C(Nc1ccc(C23CC4CC(CC(c5ccccc5)(C4)C2)C3)cc1)c1cccs1 | 4% | 3% (inactive) |
| CCn1nc(-c2ccc(C(=O)OC)cc2)nc2c(=O)n(C)c(=O)nc1-2 | -2% | 9% (inactive) |
| COc1ccc(Nc2nc(N/N=C/c3ccc(O)cc3)nc(Nc3ccc([N+](=O)[O-])cc3)n2)cc1 | 17% | 70% (active) |
| CN(N=O)C1=C(NC2CCCCC2)C(=O)c2ccccc2C1=O | -2% | 70% (active) |
| COc1cc2c3cc1Oc1c(OC)c(OC)cc4c1C(Cc1ccc(O)c(c1)Oc1ccc(cc1)CC3N(C)CC2)N(C)CC4 (stereo unspecified) | 14% | 69% (active) |
| COc1cccc(Nc2nc(NCCO)c3ccccc3n2)c1 | 18% | 57% (active) |
| c1ccc2cc3c(Nc4ccc(N5CCOCC5)cc4)ccnc3cc2c1 | 38% | 87% (active) |
| COc1ccc(-c2cc3c(nn2)-c2ccccc2C3=O)cc1 | -9% | -7% (inactive) |
| Cn1c(=O)c2cc(C(=O)NCCCN3CCCCCC3)sc2c2ccccc21 | -5% | 6% (inactive) |
| COc1ccc(NC(=O)C2c3ccccc3C(=O)N(CC(C)C)C2c2cccs2)cc1Cl (stereo unspecified) | 0% | 24% (inactive) |
| CCOC(=O)c1cnc2ccc(CC)cc2c1O | 1% | 12% (inactive) |
| CC(C)(C)c1ccc(C(=O)Nc2nc3ccccc3s2)cc1 | -3% | 7% (inactive) |
| CCOc1c(Cl)cc(CNC(C)C(O)c2ccccc2)cc1OC (stereo unspecified) | -4% | 39% |
| Cc1ccc2c(C)nc(Nc3nc(C)cc(-c4ccccc4)n3)nc2c1 | -1% | 4% (inactive) |
| OC(CNC1CCCCC1)Cn1c2ccccc2c2ccccc21 (stereo unspecified) | 14% | 23% (inactive) |
| OC1CCCCC1C1(NC(=S)Nc2ccccc2)CCCCC1 (stereo unspecified) | 26% | 51% (active) |
| Oc1ccc(Br)cc1CN1CCN(Cc2ccc(Cl)cc2)CC1 | 2% | 10% (inactive) |
| CCOc1ccc(Nc2c3ccccc3nc3ccccc23)cc1 | 68% | 112% |
| O=C(Nc1ccc(-c2nc3cc(NC(=O)c4ccc(Cl)cc4)ccc3[nH]2)cc1)c1ccc(Cl)cc1 | -9% | 28% |
| Cc1ccc(-c2cc3c(nn2)-c2ccccc2C3=O)cc1 | 14% | 50% (active) |
| O=c1cc(NC2CCN(CCCc3ccccc3)CC2)c2cc(Cl)ccc2o1 | 89% | 101% |
| COc1ccc(CNC(=O)c2cc3c(=O)n4ccccc4nc3n(CCc3ccccc3)c2=N)cc1 | 10% | 45% |
| CN1CCN(c2ncnc3c2[nH]c2ccc(Cl)cc23)CC1 | 15% | 92% (active) |
| Cc1ccc(-c2cc3nc4c(c(O)n3n2)CCCC4)cc1 | -4% | 11% (inactive) |
| CCOc1ccc(-n2cc(-c3ccccc3)c3c(SCc4cc(C)ccc4C)ncnc32)cc1 | -10% | -16% (inactive) |

| Structure (SMILES) | inhibition at 1.1 µM (hERG (Kv11.1, KCNH2) [1]) | inhibition at 11.1 µM (hERG (Kv11.1, KCNH2) [2]) |
| --- | --- | --- |
| O=[N+]([O-])c1ccc(C=NNc2nc3ccccc3[nH]2)cc1 | 15% | 44% |
| CCCCCCOC(=O)C1=C(C)NC(=O)NC1c1ccccc1F (stereo unspecified) | -2% | 1% (inactive) |
| COc1cc(-c2nc(-c3ccccc3)c(-c3ccccc3)[nH]2)cc(OC)c1O | 11% | 18% (inactive) |
| Cc1nc2ccccc2c(O)c1CC=C(Cl)Cl | -1% | -2% (inactive) |
| Nc1ccc(-c2nc3cc(Cc4ccc5[nH]c(-c6ccc(N)cc6)nc5c4)ccc3[nH]2)cc1 | 12% | 21% (inactive) |
| COc1ccc(C2C(C(=O)Nc3cccc(OC)c3)c3ccccc3C(=O)N2C2CCCCC2)cc1 (stereo unspecified) | 4% | 70% (active) |
| CCOc1ccccc1CN1CCc2nc3cc(C(C)(C)C)nn3c(O)c2C1 | -1% | 58% (active) |
| c1ccc2c(NCCCCCCNc3c4c(nc5ccccc35)CCCC4)c3c(nc2c1)CCCC3 | 36% | 102% (active) |
| Cc1[nH]c(-c2ccc(F)cc2)cc1C(=O)NC1CCN(Cc2ccccc2)CC1 | 55% | 96% |
| COc1ccc2c(=O)cc(C(Cl)(Cl)Cl)oc2c1 | 6% | 9% (inactive) |
| COc1ccc2c(c1)OC(O)(C(F)(F)C(F)(F)F)CC2=O (stereo unspecified) | 4% | 25% |
| COc1ccc(C(C)=O)cc1N1C(=O)C2C(C1=O)C1(c3ccccc3)C(=O)C2(c2ccccc2)C(c2ccc(C)cc2)=C1c1ccc(C)cc1 (stereo unspecified) | -5% | -1% (inactive) |
| N=c1n(CCN2CCCCC2)c2ccccc2n1CC(O)c1cccc(Br)c1 (stereo unspecified) | 18% | 73% (active) |
| O=C(Nc1ccccc1O)c1ccc(-c2ccc(Cl)cc2Cl)o1 | 1% | 3% (inactive) |
| CCCCOC(=O)c1ccc(Nc2cc(C)nc3ccc(OC)cc23)cc1 | 65% | 91% |
| Cc1ccc2cc3c(N)c4c(C)ccc(C)c4nc3nc2c1 | 16% | 60% (active) |
| COCCn1c(C)nc2ccccc2c1=O | 3% | 1% (inactive) |
| Cc1ccc(C(=O)c2oc3ccc4c(C)cc(=O)oc4c3c2C)cc1 | -3% | 7% (inactive) |
| COc1ccc(-c2cc(=O)oc3c4c(ccc23)OCN(Cc2ccc(F)cc2)C4)cc1 | 24% | 16% (inactive) |
| OC(CNCc1ccccc1)Cn1c2ccccc2c2ccccc21 (stereo unspecified) | 41% | 94% (active) |
| COc1ccc(-c2c(C)nn3c(N)c(C#N)cnc23)cc1OC | 11% | 11% (inactive) |
| CCN(CC)c1cc(C)c2cc(NC(=O)c3cccc(OC)c3)ccc2n1 | 85% | 103% |
| COc1cc(OC)cc(N2C(=O)N(Cc3ccc(C(C)(C)C)cc3)c3ccccc3S2(=O)=O)c1 | 10% | 16% (inactive) |
| COc1ccc(C(=O)Nc2ccc(Cl)cc2C(=O)Nc2ccncc2)cc1 | -6% | -3% (inactive) |
| O=C(Nc1ccc(F)c(Cl)c1)Nc1ccc(Cl)c(Cl)c1 | -11% | -3% (inactive) |

| Structure (SMILES) | inhibition at 1.1 µM (hERG (Kv11.1, KCNH2) [1]) | inhibition at 11.1 µM (hERG (Kv11.1, KCNH2) [2]) |
| --- | --- | --- |
| CCOc1c(Cl)cc(CNCC(O)c2ccccc2)cc1OC (stereo unspecified) | 16% | 66% (active) |
| CCC(=O)Nc1nnc(Cc2ccc(OC)c(OC)c2)s1 | -1% | -7% (inactive) |
| Cc1ccc(-c2cc(C(=O)Nc3ccc(S(=O)(=O)N4CCCCC4)cc3)[nH]n2)c(O)c1 | -1% | 8% (inactive) |
| CN(C)c1ccc(N=Cc2ccc(N3CCOCC3)cc2)cc1 | -6% | -3% (inactive) |
| CCn1c(CN2CCN(Cc3ccccc3)CC2)nc2cc(NC(=O)c3cccs3)ccc21 | 71% | 100% |
| COc1ccc(CCN2C(=O)c3[nH]nc(-c4cc(Cl)c(C)cc4O)c3C2c2ccccc2F)cc1 (stereo unspecified) | 51% | 5% |
| O=C(Nc1ccc(N2CCCCC2)c(Cl)c1)c1ccc(Br)o1 | -3% | 41% |
| COc1cc2c(cc1OC)C1=NNC(=O)C1=NC(C)(C)C2 | 9% | 11% (inactive) |
| CCCCCCc1cc2cc(-c3csc(C=Cc4ccccc4)n3)c(=O)oc2cc1O | 81% | 93% |
| CCCCc1ccc(NS(=O)(=O)c2cc3c4c(c2)CCN4C(=O)CC3)cc1 | 2% | 26% |
| COc1ccc(C(=O)NC(c2ccccc2Cl)c2cc(Cl)c3cccnc3c2O)cc1 (stereo unspecified) | 9% | 7% (inactive) |
| Oc1ccc(Cl)cc1CNc1nc2ccccc2[nH]1 | 14% | 52% (active) |
| COc1ccccc1CNC(=O)C1c2ccccc2C(=O)N(CC(C)C)C1c1cccs1 (stereo unspecified) | -15% | 17% (inactive) |
| O=C(NC1CCN(Cc2ccccc2)CC1)c1cc(C(=O)NC2CCN(Cc3ccccc3)CC2)cc(C(=O)NC2CCN(Cc3ccccc3)CC2)c1 | -2% | 39% |
| COc1ccc2c(c1OC)C(=O)N1c3ccccc3N=C(c3ccc(C)cc3)CC21 (stereo unspecified) | 25% | 10% (inactive) |
| CCCc1c(CC)c(=N)c2ccccc2n1C | 0% | 26% |
| O=C(NCC(c1ccsc1)N1CCCCCC1)c1ccc(C(F)(F)F)cc1 (stereo unspecified) | 50% | 94% |
| CCOC(=O)c1cn(CC)c2cc(N3CCCCC3)c(F)cc2c1=O | -4% | 25% |
| COC(=O)c1ccc(Cl)c2c1C1C=CCC1C(c1cccc3ccccc13)N2 (stereo unspecified) | 10% | 110% (active) |
| CC1CN(C(=O)c2sc3ccccc3c2Cl)CC(C)O1 (stereo unspecified) | 4% | 10% (inactive) |
| COc1ccc(CCNC(=O)c2cc(S(=O)(=O)N3CC(C)CC(C)C3)ccc2Sc2ccc(F)cc2)cc1OC (stereo unspecified) | 10% | 5% (inactive) |
| CC(C)(C)CC(C)(C)NCC(O)COc1ccc(Cl)cc1Cl (stereo unspecified) | 8% | 81% (active) |
| O=C(Nc1ccc(Cl)cc1)N1CCN(c2ccc3nncn3n2)CC1 | 0% | 58% (active) |
